Results as given in patent publication US9937165B2, “Pharmacological chaperones for treating obesity” (Amicus Therapeutics, Inc., priority 2005, dated 2018).
“And” between values parts separate entries of the source, which are not always exact repeats. Identical values can stand only once. Each block holds one compound with its values, some of them ahead of it. Square brackets hold non-standard residues; d marks the D form. d2Nal = N[C@H](Cc1ccc2ccccc2c1)C(=O)O; Nle = CCCC[C@H](N)C(=O)O

How the values were obtained:
[1] = Phase I study of DGJ, safety and tolerability; type: in vivo, human
Procedure: (§1) Subjects were housed in the treatment facility from 14 hours prior to dosing until 24 hours after dosing. Meals were controlled by schedule and subjects remained abulatory for 4 hours post drug administration.
Safety was determined by evaluating vital signs, laboratory parameters (serum chemistry, hematology, and urinalysis), ECGs, physical examination and by recording adverse events during the Treatment Period.
Safety data including laboratory evaluations, physical exams, adverse events, ECG monitoring and vital signs assessments were summarized by treatment group and point of time of collection. Descriptive statistics (arithmetic mean, standard deviation, median, minimum and maximum) were calculated for quantitative safety data as well as for the difference to baseline. Frequency counts were compiled for classification of qualitative safety data.
Adverse events were coded using the MedDRA version 7.0 dictionary and summarized by treatment for the number of subjects reporting the adverse event and the number of adverse events reported. A by-subject adverse event data listing including verbatim term, coded term, treatment group, severity, and relationship to treatment was provided. Concomitant medications and medical history were listed by treatment.

[2] = target: T1, α-Galactosidase A (α-Gal A) (Homo sapiens, UniProt P06280); assay: Phase I study of DGJ, WBC α-Gal A enzymatic activity; type: in vivo; set-up: α-Gal A activity was calculated in white blood cells (WBC) before dosing began; endogenous in cells
T1 sequence (P06280 32-429): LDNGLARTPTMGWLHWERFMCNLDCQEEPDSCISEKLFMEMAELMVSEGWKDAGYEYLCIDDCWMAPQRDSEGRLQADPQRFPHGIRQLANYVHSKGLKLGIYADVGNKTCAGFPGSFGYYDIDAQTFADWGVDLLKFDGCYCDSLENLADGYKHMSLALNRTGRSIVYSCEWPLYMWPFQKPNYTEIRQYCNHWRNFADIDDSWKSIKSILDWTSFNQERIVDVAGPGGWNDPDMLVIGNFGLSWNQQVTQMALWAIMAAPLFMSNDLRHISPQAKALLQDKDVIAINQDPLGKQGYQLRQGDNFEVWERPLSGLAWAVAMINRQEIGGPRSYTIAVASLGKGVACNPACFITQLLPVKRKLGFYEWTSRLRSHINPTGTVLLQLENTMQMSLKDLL
Procedure: as §1
Blood samples (10 mL each) were collected in blood collection tubes containing EDTA and WBC extracted before dosing and at the following times thereafter: 100 hours, 150 hours, and 336 hours. Samples were treated as described above, and WBC α-Gal A enzymatic activity levels were determined.

[3] = target: T1, α-Galactosidase A (α-Gal A); set-up: host or cells: normal lymphoblasts (endogenous enzyme); conditions: normal lymphoblasts cultured in vitro with DGJ; cited from earlier work
[4] = Phase I study of DGJ, pharmacokinetics in plasma and urine; type: in vivo, human
Procedure: as §1
Blood samples (10 mL each) were collected in blood collection tubes containing EDTA before dosing and at the following times thereafter: 0.25, 0.5, 0.75, 1, 1.5, 2, 3, 4, 5, 6, 7, 8, 9, 10, 11 and 12 hours. Blood samples were cooled in an ice bath and centrifuged under refrigeration as soon as possible. Plasma samples were divided into two aliquots and stored at […]. pending assay. At the end of the study, all samples were transferred to MDS Pharma Services Analytical Laboratories (Lincoln) for analysis.
Pharmacokinetic parameters were summarised by treatment group using descriptive statistics (arithmetic means, standard deviations, coefficients of variation, sample size, minimum, maximum and median).

[5] = tested on: WT and mutant hMC4R (S58C; N62S; R165W; R165Q; P299H) in HEK 293 cells; assay: Chemical chaperone assay, MC4R cell surface expression by FACS; type: cell-based, human; conditions: 1% DMSO, 12 hours
Procedure: HEK 293 cells were transiently transfected with wild-type (WT) or the following hMC4R mutants double tagged with 3HA and Venus (Enhanced Yellow Green Fluorescent Protein; EYFP): S58C; N62S; R165W; R165Q, and P299H.
WT and transiently transfected cells were incubated in the presence or absence of 1% DMSO for 12 hours prior to evaluation of MC4R cells surface expression.
FACS analysis was performed after fluorescently labeling cells with primary anti-HA.11 antibody (mouse; 1:1000 dilution) and the secondary antibody coupled to Alexa 647 (goat anti-mouse; 1:1000 dilution) dilution. Live cells (propidium iodide negative) were sorted into the following two relevant populations: • P4: Total YFP positive cells (representative of total MC4R expression) • P5: Percent of cells positive for both YFP and Alexa 647 (Alexa and YFP positive cells)/(YFP positive cells+Alexa and YFP positive cells) (representative of cell surface expression)

[6] = target: MC4R as compared to the MC5R (Homo sapiens, UniProt P32245); conditions: cited from earlier work
Chain of MC4R as compared to the MC5R (P32245 whole entry): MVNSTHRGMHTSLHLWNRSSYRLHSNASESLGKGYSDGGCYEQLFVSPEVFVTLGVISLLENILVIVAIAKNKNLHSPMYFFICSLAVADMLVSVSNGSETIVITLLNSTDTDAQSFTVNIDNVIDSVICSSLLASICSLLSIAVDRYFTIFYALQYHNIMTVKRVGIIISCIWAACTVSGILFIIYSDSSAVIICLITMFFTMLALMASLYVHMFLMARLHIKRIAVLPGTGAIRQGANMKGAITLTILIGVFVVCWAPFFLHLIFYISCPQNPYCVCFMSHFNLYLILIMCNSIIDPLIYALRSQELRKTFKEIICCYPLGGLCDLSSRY

[7] = target: MC4R as compared to the MC3R (Homo sapiens, UniProt P32245); conditions: cited from earlier work
Chain of MC4R as compared to the MC3R (P32245 whole entry): as above

MC4R = MC4R (Homo sapiens, UniProt P32245); conditions: MC4R antagonist; cited from earlier work
Chain of MC4R (P32245 whole entry): as above

MC4R over MC3R = MC4R over MC3R (Homo sapiens, UniProt P32245); conditions: cited from earlier work
Chain of MC4R over MC3R (P32245 whole entry): as above

inhibition of WBC α-Gal A enzymatic activity ([2]; 50 mg b.i.d. or 150 mg b.i.d.): did not inhibit
WBC α-Gal A enzymatic activity, % pre-dose levels ([2]; 50 mg b.i.d., 150 hours): 130%
WBC α-Gal A enzymatic activity, % pre-dose levels ([2]; 50 mg b.i.d., 336 hours): 145%
WBC α-Gal A enzymatic activity, % pre-dose levels ([2]; 150 mg b.i.d., 100 hours): 150%
WBC α-Gal A enzymatic activity, % pre-dose levels ([2]; 150 mg b.i.d., 150 hours): 185%
WBC α-Gal A enzymatic activity, % pre-dose levels ([2]; 150 mg b.i.d., 336 hours): 185%
tmax ([4]; 50 mg b.i.d. oral, Day 1): 2.9 ± 0.4 h
t½ ([4]; 50 mg b.i.d. oral, Day 1): 2.5 h
12 h cumulative renal excretion ([4]; 50 mg b.i.d. oral, Day 1, 12-hour post dose period): 16% and 16 ± 6%
Cmax ([4]; 50 mg b.i.d. oral, Day 1, plasma): 2.3 ± 0.3 µM
Cmin ([4]; 50 mg b.i.d. oral, Day 7): 0.4 ± 0.03 µM
tmax ([4]; 50 mg b.i.d. oral, Day 7): 2.5 ± 0.4 h
12 h cumulative renal excretion ([4]; 50 mg b.i.d. oral, Day 7, 12-hour post dose period): 48% and 48 ± 7%
Cmax ([4]; 50 mg b.i.d. oral, Day 7, plasma): 39 ± 0.5 µM
tmax ([4]; 150 mg b.i.d. oral, Day 1): 3.1 ± 0.4 h
t½ ([4]; 150 mg b.i.d. oral, Day 1): 2.4 h
12 h cumulative renal excretion ([4]; 150 mg b.i.d. oral, Day 1, 12-hour post dose period): 42% and 42 ± 7%
Cmax ([4]; 150 mg b.i.d. oral, Day 1, plasma): 11.3 ± 1.5 µM
Cmin ([4]; 150 mg b.i.d. oral, Day 7): 1.2 ± 0.1 µM
tmax ([4]; 150 mg b.i.d. oral, Day 7): 2.9 ± 0.4 h
12 h cumulative renal excretion ([4]; 150 mg b.i.d. oral, Day 7, 12-hour post dose period): 60% and 60 ± 5%
Cmax ([4]; 150 mg b.i.d. oral, Day 7, plasma): 10.8 ± 1.4 µM
time of peak concentrations, on average ([4]; all dose levels): approximately 3 hours
dose dependence of Cmax ([4]; doses increased from 50 mg to 150 mg): increased in a dose-proportional manner
Compound: OC[C@H]1NC[C@H](O)[C@@H](O)[C@H]1O [DGJ, 1-deoxygalactonojirimycin]
safety and tolerability ([1]; 50 mg b.i.d. and 150 mg b.i.d., healthy male subjects): safe and well tolerated
adverse events (AEs) ([1]; 50 mg b.i.d. or 150 mg b.i.d., healthy male subjects): no subject presented with AEs
vital sign, ECG, or physical examination parameter ([1]; throughout the study): No clinically relevant abnormality
increase of α-Gal A activity [3]: 30%

Compound: C[S+](C)[O-] [DMSO]
enhancement of MC4R cell surface expression [5]: No significant enhancement

Compound: Ac-Nle-Gly-Lys-D-Nal(2)-Arg-Trp-Gly-NH(2) (Ac-[Nle]GK[d2Nal]RWG-NH2; SMILES CCCC[C@H](NC(C)=O)C(=O)NCC(=O)N[C@@H](CCCCN)C(=O)N[C@H](Cc1ccc2ccccc2c1)C(=O)N[C@@H](CCCNC(=N)N)C(=O)N[C@@H](Cc1c[nH]c2ccccc12)C(=O)NCC(N)=O)
selectivity for the MC4R as compared to the MC5R [6]: 109 fold
selectivity for the MC4R as compared to the MC3R [7]: 34 fold

Compound: Ac-Nle-Gly-Lys-D-Phe-Arg-Trp-Gly-NH(2) (Ac-[Nle]GK[dF]RWG-NH2; SMILES CCCC[C@H](NC(C)=O)C(=O)NCC(=O)N[C@@H](CCCCN)C(=O)N[C@H](Cc1ccccc1)C(=O)N[C@@H](CCCNC(=N)N)C(=O)N[C@@H](Cc1c[nH]c2ccccc12)C(=O)NCC(N)=O)
selectivity for the MC4R as compared to the MC5R [6]: 110 fold
selectivity for the MC4R as compared to the MC3R [7]: 90 fold

Compound: Ac-Nle-c[Asp-Che-DNal(2′)-Arg-Trp-Lys-NH(2) [SHU9119 analogue, cyclic MC4R antagonist of Grieco et al., J Med Chem 2002]
IC50 (MC4R): 0.48 nM
selectivity over MC3R (MC4R over MC3R): 100 fold

Compound: Ac-Nle-c[Asp-Cpe-DNal(2′)-Arg-Trp-Lys-NH(2) [SHU9119 analogue, cyclic MC4R antagonist of Grieco et al., J Med Chem 2002]
IC50 (MC4R): 0.51 nM
selectivity over MC3R (MC4R over MC3R): 200 fold
